In patent US5350864A, “Aminoalkylcarbamyl derivatives of forskolin as intermediates for the synthesis of useful forskolin derivatives” (The United States of America as represented by the …, priority 1990, dated 1994):
Entries after “also recorded” stand apart in the source; their conditions may differ. Where two headings read alike, the source gives them in different places. Each block holds one compound with its values, some of them ahead of it.

Legend:
adenylate cyclase [1] = assay: Filtration binding assay, ^125 I-labelled derivative 19 (6-^125 I-HPP-Fsk) to bovine brain membranes; conditions: for inhibition of 6-^125 I-HPP-Fsk binding: 60 min
Source text: (§1) Derivative 19 (6-^125 I-HPP-Fsk) was used to develop a binding assay for adenylate cyclase (Example 4). […] Therefore, a filtration assay can be used to separate the bound from free ligand and determine the amount of high affinity binding. […] Analogs of forskolin that activate adenylate cyclase inhibit the binding of 6-^125 I-HPP-Fsk to membranes. The ability of an agent to inhibit 6-^125 I-HPP-Fsk binding to membranes is therefore indicative of its ability to stimulate adenylate cyclase.
Binding of 6-^125 I-HPP-Fsk to Membranes--Crude membranes from bovine brain were incubated for 60 minutes at […] 20° C. with 20,000 cpm of 6-^125 I-HPP-Fsk. Binding equilibrium was reached by 45 minutes and was constant for at least 2 hours (data not shown). The incubations were carried out at 20° C. for 60 minutes in 12×75 glass test tubes in a total volume of 0.4 mL […] Tris-HCl buffer, pH 7.4. The membranes (0.40 mg/tube) were incubated in the presence of 5 mM MgCl2 and 10 mM NaF. The assay was terminated by the addition of 5 mL of cold Tris-HCl buffer to the tubes and rapid filtration over Whatman GF/C filters using a Brandel cell harvester. The assay was terminated as described above and the filters counted in a gamma counter. The nonspecific binding was calculated as the amount of label not displaced by 20 uM forskolin. The non specific binding was about 20% of the total bound.

adenylate cyclase [2] = assay: Photolabelling of bovine brain membranes, SDS gel electrophoresis; type: binding
Description: (§2) Derivative 20 (6-AIPPS-Fsk) is incubated with partially purified preparations of bovine brain adenylate cyclase, photolyzed, and then the radioactive proteins are analyzed by SDS gel electrophoresis. […] 6-AIPPS-Fsk can also label adenylate cyclase in crude membranes. 6-AIPPS-Fsk is incubated with bovine brain membranes, photolyzed, and the radioactive proteins are analyzed by SDS gel electrophoresis.

P-glycoprotein [3] = target: T1, P-glycoprotein (Homo sapiens, UniProt P08183)
T1 sequence (P08183 whole entry): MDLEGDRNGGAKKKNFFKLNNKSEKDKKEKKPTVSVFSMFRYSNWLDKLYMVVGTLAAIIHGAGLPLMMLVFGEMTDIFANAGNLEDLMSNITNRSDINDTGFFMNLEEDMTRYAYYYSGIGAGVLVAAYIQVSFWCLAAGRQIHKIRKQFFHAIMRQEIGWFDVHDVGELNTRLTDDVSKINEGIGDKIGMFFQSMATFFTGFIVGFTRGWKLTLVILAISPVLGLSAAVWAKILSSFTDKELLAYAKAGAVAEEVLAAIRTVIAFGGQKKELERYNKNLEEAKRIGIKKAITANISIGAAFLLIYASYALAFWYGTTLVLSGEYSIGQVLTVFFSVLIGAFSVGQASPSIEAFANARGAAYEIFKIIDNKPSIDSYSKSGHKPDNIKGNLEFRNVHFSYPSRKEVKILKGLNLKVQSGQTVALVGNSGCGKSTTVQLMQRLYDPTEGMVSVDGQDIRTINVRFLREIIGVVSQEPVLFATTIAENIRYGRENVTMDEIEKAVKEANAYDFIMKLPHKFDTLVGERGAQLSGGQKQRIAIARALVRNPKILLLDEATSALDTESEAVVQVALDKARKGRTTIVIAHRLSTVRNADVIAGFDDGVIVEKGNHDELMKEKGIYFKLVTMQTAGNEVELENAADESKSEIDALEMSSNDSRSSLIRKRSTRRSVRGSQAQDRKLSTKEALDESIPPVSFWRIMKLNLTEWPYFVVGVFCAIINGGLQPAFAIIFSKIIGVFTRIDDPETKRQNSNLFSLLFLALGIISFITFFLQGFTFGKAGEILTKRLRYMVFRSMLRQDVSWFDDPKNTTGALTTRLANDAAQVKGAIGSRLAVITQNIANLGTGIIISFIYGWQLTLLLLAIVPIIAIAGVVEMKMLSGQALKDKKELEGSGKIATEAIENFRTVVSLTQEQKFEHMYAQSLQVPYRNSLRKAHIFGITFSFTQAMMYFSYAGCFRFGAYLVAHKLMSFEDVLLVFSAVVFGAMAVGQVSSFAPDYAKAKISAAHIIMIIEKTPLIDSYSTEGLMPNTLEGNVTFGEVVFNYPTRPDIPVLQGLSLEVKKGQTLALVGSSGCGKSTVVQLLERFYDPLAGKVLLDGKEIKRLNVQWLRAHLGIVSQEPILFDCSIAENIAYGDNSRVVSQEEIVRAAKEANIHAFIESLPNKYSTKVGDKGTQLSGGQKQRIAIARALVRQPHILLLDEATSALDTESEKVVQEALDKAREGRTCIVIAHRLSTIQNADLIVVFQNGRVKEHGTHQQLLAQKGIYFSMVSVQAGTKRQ

adenylate cyclase [4] = conditions: literature, cited from earlier work
glucose transporter [5] = conditions: cited from earlier work
cancer cells = conditions: certain cancer cells; literature; cited from earlier work
glucose transporter [6] = target: T2, glucose transporter (Homo sapiens, UniProt P11166); assay: Filtration binding assay, ^125 I-labelled derivative 8 (7-^125 I-HPP-Fsk) to human red blood cell membranes; conditions: for inhibition of 7-^125 I-HPP-Fsk binding: human red blood cell membranes
T2 construct: Crude membranes from human red blood cells; from tissue; host or cells: human red blood cells, membranes
T2 sequence (P11166 1-492): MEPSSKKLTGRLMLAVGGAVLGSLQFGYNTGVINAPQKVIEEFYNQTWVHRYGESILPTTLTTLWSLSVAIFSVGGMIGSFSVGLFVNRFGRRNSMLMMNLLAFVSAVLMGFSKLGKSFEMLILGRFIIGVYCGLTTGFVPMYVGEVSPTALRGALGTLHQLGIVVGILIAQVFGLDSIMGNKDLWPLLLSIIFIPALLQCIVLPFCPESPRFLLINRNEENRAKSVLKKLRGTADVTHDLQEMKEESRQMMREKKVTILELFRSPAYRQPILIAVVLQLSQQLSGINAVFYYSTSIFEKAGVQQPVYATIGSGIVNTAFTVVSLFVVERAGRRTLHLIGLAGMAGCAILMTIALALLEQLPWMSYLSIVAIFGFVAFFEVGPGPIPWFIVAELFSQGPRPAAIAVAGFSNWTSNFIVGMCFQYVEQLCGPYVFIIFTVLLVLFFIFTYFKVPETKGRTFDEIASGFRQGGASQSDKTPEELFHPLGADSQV
Description: Binding of 7-^125 IHPP-Fsk to Membranes--Crude membranes from human red blood cells were incubated for 60 minutes at 20° C. with 20,000 cpm of 7-^125 IHPP-Fsk. […] The incubations were carried out at 20° C. for 60 minutes in 12×75 glass test tubes in a total volume of 0.4 mL 50 mM Tris-HCl buffer, pH 7.4. The assay was terminated by the addition of 4 mL of cold Tris-HCl buffer to the tubes at rapid filtration over Whatman GF/C filters using a Brandel cell harvester. The assay was terminated as described above and the filters counted in a gamma counter. The nonspecific binding was calculated as the amount of label not displaced by 20 μM forskolin.

adenylate cyclase [7] = assay: Photolabelling of partially purified bovine brain adenylate cyclase, SDS gel electrophoresis; type: binding
Description: as §2

P-glycoprotein [8] = assay: Binding to the P-glycoprotein
[9] = literature; cited from earlier work
[10] = test system: bovine brain adenylate cyclase; assay: Activation of bovine brain adenylate cyclase; type: biochemical; conditions: relative to forskolin
[11] = Stability to heating in base; type: physicochemical; conditions: heating in 0.1N KOH in methanol, two hours, 60° C.
Description: The 7-aminoethylcarbamate can be synthesized using the 1,9-dimethylformamide acetal of 7-desacetylforskolin as starting material (see synthetic scheme of FIG. 2). The selective reactivity of carbonyldiimidazole (CDI) with the equatorial 7β-hydroxyl group is exploited to form the 7-acylimidazole intermediate. The reaction of the 7-acylimidazole intermediate with ethylenediamine produces the 7-aminoethylcarbamate of forskolin (see 3 in FIG. 1 and Example 1). The same procedure is carried out to produce 7β-aminobutylcarbamate (5), 7β-aminohexylcarbamate (6), and the 7β-aminoheptylcarbamate (7) of forskolin. The 7β-aminoalkylcarbamates of forskolin are very stable compounds. The 7β-aminoethylcarbamate of forskolin is stable to heating in 0.1N KOH in methanol for two hours at 60° C.

Water solubility = type: physicochemical; conditions: relative to forskolin
adenylate cyclase [12] = assay: Binding of 6-^125 I-HPP-Fsk to membranes from human platelets
Source text: as §1

P-glycoprotein [13] = target: T1, P-glycoprotein; assay: Photolabelling of membranes from human ovarian carcinoma cell line overexpressing P-glycoprotein
glucose transporter [14] = assay: Binding of 7-^125 I-HPP-Fsk to bovine brain
Source text: (§3) 7-^125 I-HPP-Fsk also binds with high affinity to other tissues including bovine brain, rat heart, rat muscle, and human platelets. The binding of 7-^125 I-HPP-Fsk to these tissues is inhibited by D-glucose and cytochalasin B. Therefore, 7-^125 I-HPP-Fsk binds with high affinity to the glucose transporter in diverse tissues.

glucose transporter [15] = assay: Binding of 7-^125 I-HPP-Fsk to rat heart
Source text: as §3

glucose transporter [16] = assay: Binding of 7-^125 I-HPP-Fsk to rat muscle
Source text: as §3

glucose transporter [17] = target: T3, glucose transporter (Homo sapiens, UniProt P11169); assay: Binding of 7-^125 I-HPP-Fsk to human platelets
T3 construct: other tissues including bovine brain, rat heart, rat muscle, and human platelets; from tissue; host or cells: human platelets
T3 sequence (P11169 1-496): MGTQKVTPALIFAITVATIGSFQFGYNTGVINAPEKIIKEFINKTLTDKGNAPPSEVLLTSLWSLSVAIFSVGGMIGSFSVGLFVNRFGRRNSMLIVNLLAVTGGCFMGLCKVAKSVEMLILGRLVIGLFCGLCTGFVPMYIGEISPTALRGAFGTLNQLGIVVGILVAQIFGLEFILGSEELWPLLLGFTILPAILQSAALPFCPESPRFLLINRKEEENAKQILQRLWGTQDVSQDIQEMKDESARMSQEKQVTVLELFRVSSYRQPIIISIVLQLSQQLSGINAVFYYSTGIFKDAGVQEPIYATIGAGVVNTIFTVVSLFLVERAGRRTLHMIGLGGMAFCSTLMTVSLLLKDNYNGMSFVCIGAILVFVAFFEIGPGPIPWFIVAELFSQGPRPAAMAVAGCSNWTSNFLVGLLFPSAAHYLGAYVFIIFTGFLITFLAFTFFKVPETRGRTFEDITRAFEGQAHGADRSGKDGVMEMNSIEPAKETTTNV
Source text: as §3

glucose transporter [18] = target: T2, glucose transporter; assay: Photolabelling of human red blood cell membranes, SDS gel electrophoresis; type: binding
Description: Derivative 9 (7-AIPPS-Fsk) is incubated with human red blood cell membranes, photolyzed, and then the radioactive proteins were analyzed by SDS gel electrophoresis.

glucose transporter [19] = conditions: read-out: affinity of cytochalasin B; cited from earlier work

SMILES: C=C[C@@]1(C)CC(=O)[C@@H]2[C@@]3(C)CCCC(C)(C)[C@@H]3[C@H](O)[C@H](OC(C)=O)[C@@]2(C)O1 [1,9-dideoxyforskolin]
inhibition of 6-^125 I-HPP-Fsk binding (adenylate cyclase [1]; bovine brain membranes, 20° C.): not by 1,9-dideoxyforskolin
inhibition of labelling by 6-AIPPS-Fsk (adenylate cyclase [2]): not inhibited
inhibition of labelling by 6-AIPPS-Fsk (P-glycoprotein [3]): more potent at inhibiting the labelling by 6-AIPPS-Fsk than forskolin
activation of adenylate cyclase (adenylate cyclase [4]): inability
activation of adenylate cyclase (adenylate cyclase [4]; listed as 1,9-Dideoxyforskolin): does not activate adenylate cyclase; also recorded: not active at adenylate cyclase
inhibition of glucose transport (glucose transporter [5]; adipocyte membranes, literature): inhibit glucose transport in adipocyte membranes
sensitization to cytotoxic effects of drugs (cancer cells): can sensitize certain cancer cells to the cytotoxic effects of drugs

SMILES: C=C[C@@]1(C)CC(=O)[C@]2(O)[C@@]3(C)[C@@H](O)CCC(C)(C)[C@@H]3[C@H](O)[C@H](OC(C)=O)[C@@]2(C)O1 [Compound 1, forskolin]
inhibition of 6-^125 I-HPP-Fsk binding (adenylate cyclase [1]; bovine brain membranes, 20° C.): inhibited
binding affinity / selectivity (glucose transporter [6]): binds to the glucose transporter in human red blood cells
inhibition of 7-^125 I-HPP-Fsk binding (glucose transporter [6]): inhibited
inhibition of labelling by 6-AIPPS-Fsk (adenylate cyclase [7]): inhibited
binding to P-glycoprotein (P-glycoprotein [8]): bind to the P-glycoprotein
activation of adenylate cyclase (adenylate cyclase [4]): activate the enzyme adenylate cyclase and increase intracellular cyclic AMP
potency at activating adenylate cyclase versus inhibiting glucose transport (glucose transporter [5]; relative to adenylate cyclase activation): equipotent
sensitization to cytotoxic effects of drugs (cancer cells): can sensitize certain cancer cells to the cytotoxic effects of drugs
cardiotonic effects [9]: marked cardiotonic effects

potency relative to 6-aminoethylcarbamyl derivative 4 at inhibiting binding of 7-^125 I-HPP-Fsk (glucose transporter [6]; erythrocyte membranes): about 30 fold
stability [11]: stable
water solubility (Water solubility): enhanced water solubility
SMILES: C=C[C@@]1(C)CC(=O)[C@]2(O)[C@@]3(C)[C@@H](O)CCC(C)(C)[C@@H]3[C@H](O)[C@H](OC(=O)NCCN)[C@@]2(C)O1 [Compound 3, 7-aminoethyl-carbamylforskolin]
extent of stimulation of adenylate cyclase [10]: stimulate adenylate cyclase to a greater extent than forskolin

water solubility (Water solubility): enhanced water solubility
SMILES: C=C[C@@]1(C)CC(=O)[C@]2(O)[C@@]3(C)[C@@H](O)CCC(C)(C)[C@@H]3[C@H](OC(=O)NCCN)[C@H](OC(C)=O)[C@@]2(C)O1 [Compound 4, 6-aminoethylcarbamylforskolin]
extent of stimulation of adenylate cyclase [10]: stimulate adenylate cyclase to a greater extent than forskolin

SMILES: C=C[C@@]1(C)CC(=O)[C@]2(O)[C@@]3(C)[C@@H](O)CCC(C)(C)[C@@H]3[C@H](OC(=O)NCCNC(=O)CCc3ccc(O)c([125I])c3)[C@H](OC(C)=O)[C@@]2(C)O1 [Derivative 19]
time binding was constant (adenylate cyclase [1]; 20° C.): at least 2 hours
time to binding equilibrium (adenylate cyclase [1]; 20° C.): ≤ 45 min
selectivity of 6-^125 I-HPP-Fsk binding (adenylate cyclase [1]; adenylate cyclase versus glucose transporter, listed as 6-^125 I-HPP-Fsk): not binding with high affinity to the glucose transporter in brain tissue; also recorded: specific for adenylate cyclase
binding affinity (adenylate cyclase [1]; bovine brain membranes): high affinity
Kd (adenylate cyclase [1]; membranes from bovine brain): ~25 nM
Kd (adenylate cyclase [12]): ~25 nM

SMILES: C=C[C@@]1(C)CC(=O)[C@]2(O)[C@@]3(C)[C@@H](O)CCC(C)(C)[C@@H]3[C@H](OC(=O)NCCNC(=O)CCc3ccc(N=[N+]=[N-])c([125I])c3)[C@H](OC(C)=O)[C@@]2(C)O1 [Derivative 20]
photolabelling of adenylate cyclase (adenylate cyclase [7]): covalently incorporated into the adenylate cyclase
photolabelling of adenylate cyclase (adenylate cyclase [2]): labels the adenylate cyclase in bovine brain membranes
photolabelling of P-glycoprotein (P-glycoprotein [3]): labelled

SMILES: COc1cccc2c1C(=O)c1c(O)c3c(c(O)c1C2=O)C[C@@](O)(C(=O)CO)C[C@@H]3O[C@H]1C[C@H](N)[C@H](O)[C@H](C)O1 [adriamycin]
inhibition of labelling by 6-AIPPS-Fsk (P-glycoprotein [13]): inhibited

SMILES: C=C1C(C)C2C(Cc3ccccc3)NC(=O)C23OC(=O)/C=C/C(O)CCCC(C)C/C=C/C3C1O (centres unmarked) [cytochalasin B]
inhibition of 6-^125 I-HPP-Fsk binding (adenylate cyclase [1]; bovine brain membranes, 20° C.): not inhibited
inhibition of 7-^125 I-HPP-Fsk binding (glucose transporter [6]): inhibition of binding; also recorded: inhibited
inhibition of 7-^125 I-HPP-Fsk binding (glucose transporter [6]; listed as cytochlasin B): inhibited
inhibition of 7-^125 I-HPP-Fsk binding (glucose transporter [14]): inhibited
inhibition of 7-^125 I-HPP-Fsk binding (glucose transporter [15]): inhibited
inhibition of 7-^125 I-HPP-Fsk binding (glucose transporter [16]): inhibited
inhibition of 7-^125 I-HPP-Fsk binding (glucose transporter [17]): inhibited
inhibition of labelling by 7-AIPPS-Fsk (glucose transporter [18]): inhibited
Kd (glucose transporter [19]): ~1000 nM
